Reference: PMC8298857, “Vanillin Activates Human Bitter Taste Receptors TAS2R14, TAS2R20, and TAS2R39” (Frontiers in Nutrition, 2021)

Key:
Test in all cases: FLIPR calcium imaging in transfected HEK293 PEAKrapid Gα[…]i/o44 cells, dose-response with mock control
Assay type in all cases: cell-based
TAS2R20 = target: T1, TAS2R20 (Homo sapiens, UniProt P59543)
T1 construct: TAS2R cDNA cloned 3′ of the first 45 amino acids of the rat somatostatin receptor 3
T1 sequence (P59543 1-309): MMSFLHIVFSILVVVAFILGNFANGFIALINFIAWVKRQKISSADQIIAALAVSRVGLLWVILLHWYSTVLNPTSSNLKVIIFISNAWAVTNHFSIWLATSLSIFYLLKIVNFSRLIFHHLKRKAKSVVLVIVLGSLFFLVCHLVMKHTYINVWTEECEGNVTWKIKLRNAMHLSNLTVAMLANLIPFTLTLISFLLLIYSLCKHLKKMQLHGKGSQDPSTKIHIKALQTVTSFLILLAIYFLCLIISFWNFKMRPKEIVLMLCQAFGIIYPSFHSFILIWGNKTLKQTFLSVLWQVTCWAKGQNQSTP

TAS2R14 = target: T2, TAS2R14 (Homo sapiens, UniProt Q9NYV8)
T2 construct: TAS2R cDNA cloned 3′ of the first 45 amino acids of the rat somatostatin receptor 3
T2 sequence (Q9NYV8 1-317): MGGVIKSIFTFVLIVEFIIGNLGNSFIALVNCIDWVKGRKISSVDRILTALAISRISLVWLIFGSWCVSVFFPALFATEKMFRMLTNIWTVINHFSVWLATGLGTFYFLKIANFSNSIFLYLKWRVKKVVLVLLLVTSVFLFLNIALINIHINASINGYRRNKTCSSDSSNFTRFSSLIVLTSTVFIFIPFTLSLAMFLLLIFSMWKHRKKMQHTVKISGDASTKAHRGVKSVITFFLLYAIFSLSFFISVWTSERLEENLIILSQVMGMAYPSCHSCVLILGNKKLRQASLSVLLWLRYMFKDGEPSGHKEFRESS

TAS2R39 = target: T3, TAS2R39 (Homo sapiens, UniProt P59534)
T3 construct: TAS2R cDNA cloned 3′ of the first 45 amino acids of the rat somatostatin receptor 3
T3 sequence (P59534 1-338): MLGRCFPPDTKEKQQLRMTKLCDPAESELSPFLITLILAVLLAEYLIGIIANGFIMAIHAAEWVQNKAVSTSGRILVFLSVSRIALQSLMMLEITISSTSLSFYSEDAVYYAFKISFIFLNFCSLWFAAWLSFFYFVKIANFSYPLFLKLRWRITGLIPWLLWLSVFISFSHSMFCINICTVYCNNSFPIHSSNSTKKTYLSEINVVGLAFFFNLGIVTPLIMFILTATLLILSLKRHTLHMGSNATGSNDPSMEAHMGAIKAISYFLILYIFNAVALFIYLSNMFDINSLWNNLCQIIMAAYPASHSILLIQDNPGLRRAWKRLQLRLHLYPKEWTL

COc1cc(C=O)ccc1O [vanillin, 4-hydroxy-3-methoxybenzaldehyde]
EC50 (TAS2R20): 530 ± 90 µM
EC50 (TAS2R14): 570 ± 110 µM
EC50 (TAS2R39): 870 ± 190 µM
